{
  "source": "patent EP3808411A1",
  "about": "“COSMETIC COMPOSITIONS AND USE THEREOF” (Mesoestetic Pharma Group, S.L., priority 2019, dated 2020)",
  "key": {"[1]": {"system": "human dermal fibroblasts", "assay": "β-galactosidase staining in a model of UVB-induced senescence", "type": "cell-based", "procedure": "(§1) In order to verify the action of the shikimic acid as a protector against the process of cellular senescence induced by Ultraviolet Type-B (UVB) damage, the shikimic acid was tested in a model of UVB-induced senescence in human dermal fibroblasts. In this model, two days after being plated, the cells are irradiated with UVB. After three days, the cells are re-irradiated with UVB. Two days after the second irradiation, the cells are processed for analysis. The shikimic acid is incubated with the cells from 24 h before the first irradiation until the day they are analysed. To assess whether cells are senescent or not, two markers are used. On the one hand, β-galactosidase staining is carried out, which stains the senescent cells blue, since they have an abnormal lysosomal activity at pH 6. Furthermore, the expression of the HAS2 gene is quantified by means of the qPCR technique."}, "[2]": {"system": "HAS2 gene", "assay": "HAS2 gene expression by qPCR in a model of UVB-induced senescence", "type": "cell-based, human", "procedure": "as §1"}},
  "note": "“Also recorded” adds a separate entry of the source.",
  "data": [
    {"molecule": "N#CC(=Cc1ccc(-c2cc(Cl)ccc2Cl)o1)C(=O)Nc1cccc2ncccc12", "note": "[AGK2]", "values": [
      {"measurement": "effect of inhibitor on the protective role of shikimic acid on senescence", "setting": "[1]; UVB-irradiated cells, 10, 25, 50 mM shikimic acid + AGK2 2 µM, Figures 5 and 6", "result": "do not reverse the protective effect of shikimic acid on senescence"}
    ]},
    {"molecule": "NC(=O)C1CCCc2c1[nH]c1ccc(Cl)cc21", "note": "(centres unmarked) [EX-527]", "values": [
      {"measurement": "effect of inhibitor on the protective role of shikimic acid on senescence (β-galactosidase staining)", "setting": "[1]; UVB-irradiated cells, 10, 25, 50 mM shikimic acid + EX-527 1 µM, Figure 3", "result": "capable of reversing the effect of shikimic acid on senescence"},
      {"measurement": "HAS2 gene expression with shikimic acid + inhibitor", "setting": "[2]; UVB-irradiated cells, shikimic acid (SX) + EX-527 1 µM versus SX only, Figure 4", "result": "reversed to a lesser extent"}
    ]},
    {"molecule": "O=C(Nc1ccc(O)c(C(=O)O)c1)c1cccc(NC(=O)c2ccco2)c1", "note": "[OSS128167]", "values": [
      {"measurement": "effect of inhibitor on the protective role of shikimic acid on senescence", "setting": "[1]; UVB-irradiated cells, 10, 25, 50 mM shikimic acid + OSS128167 200 µM, Figures 7 and 8", "result": "do not reverse the protective effect of shikimic acid on senescence"}
    ]},
    {"molecule": "COC1=C(OC)C(=O)C(CCCCCCCCCCO)=C(C)C1=O", "note": "[idebenone]", "values": [
      {"measurement": "protection against UVB damage-induced senescence (β-galactosidase staining)", "setting": "[1]; UVB-irradiated cells treated with 2.5, 5, 10 µM idebenone, Figure 9", "result": "neither of these two comparative compounds is capable of protecting against UVB damage-induced senescence"}
    ]},
    {"molecule": "O=C(O)CCCCC1CCSS1", "note": "(centres unmarked) [lipoic acid]", "values": [
      {"measurement": "protection against UVB damage-induced senescence (β-galactosidase staining)", "setting": "[1]; UVB-irradiated cells treated with 50, 100, 200 µM lipoic acid, Figure 10", "result": "neither of these two comparative compounds is capable of protecting against UVB damage-induced senescence"}
    ]},
    {"molecule": "O=C(O)C1=CC(O)C(O)C(O)C1", "note": "(centres unmarked) [shikimic acid, 3,4,5-trihydroxy-1-cyclohexene-1-carboxylic acid]", "values": [
      {"measurement": "senescent cells (β-galactosidase staining)", "setting": "[1]; UVB-irradiated human dermal fibroblasts treated with 10, 25, 50 mM shikimic acid, Figure 1", "result": "this increase in senescence does not occur; also recorded: more effective than other compounds such as idebenone or lipoic acid"},
      {"measurement": "HAS2 gene expression", "setting": "[2]; UVB-irradiated human dermal fibroblasts treated with 10, 25, 50 mM shikimic acid, Figure 2", "result": "this decrease is reversed in gene expression"}
    ]}
  ]
}
